Reference: ChEMBL document CHEMBL6087462, “Cuminaldehyde Potentiates Antiproteolytic Peptide Efficacy via Parallel Pathways of Enhanced Inner Membrane-Damaging Activity and Inhibition of Bacterial Energy Metabolism” (J Med Chem, 2025)

Assays:
Escherichia coli [1] = assay: Antimicrobial activity against Escherichia coli 078 assessed as reduction in microbial growth by CLSI based broth microdilution method; assay type: functional
Escherichia coli [2] = assay: Antimicrobial activity against Escherichia coli K88 assessed as reduction in microbial growth by CLSI based broth microdilution method; assay type: functional
Staphylococcus aureus [3] = assay: Antimicrobial activity against Staphylococcus aureus ATCC 29213 assessed as reduction in microbial growth by CLSI based broth microdilution method; assay type: functional
Salmonella typhimurium [4] = assay: Antimicrobial activity against Salmonella typhimurium ATCC 7731 assessed as reduction in microbial growth by CLSI based broth microdilution method; assay type: functional, Salmonella enterica subsp. enterica serovar Typhimurium; conditions: Salmonella enterica
Escherichia coli [5] = assay: Antimicrobial activity against Escherichia coli UB 1005 assessed as reduction in microbial growth by CLSI based broth microdilution method; assay type: functional
Escherichia coli [6] = assay: Antimicrobial activity against Escherichia coli ATCC 25922 assessed as reduction in microbial growth by CLSI based broth microdilution method; assay type: functional
Escherichia coli [7] = assay: Antimicrobial activity against Escherichia coli K99 assessed as reduction in microbial growth by CLSI based broth microdilution method; assay type: functional
Salmonella typhimurium [8] = assay: Antimicrobial activity against Salmonella typhimurium ATCC 14028 assessed as reduction in microbial growth by CLSI based broth microdilution method; assay type: functional, Salmonella enterica subsp. enterica serovar Typhimurium; conditions: Salmonella enterica
Staphylococcus aureus [9] = assay: Antimicrobial activity against Staphylococcus aureus ATCC 25923 assessed as reduction in microbial growth by CLSI based broth microdilution method; assay type: functional
Enterococcus faecalis = assay: Antimicrobial activity against Enterococcus faecalis ATCC 29212 assessed as reduction in microbial growth by CLSI based broth microdilution method; assay type: functional
[10] = tested on: Staphylococcus epidermidis; assay: Antimicrobial activity against Staphylococcus epidermidis ATCC 12228 assessed as reduction in microbial growth by CLSI based broth microdilution method; assay type: functional
Pseudomonas aeruginosa = assay: Antimicrobial activity against Pseudomonas aeruginosa ATCC 27853 assessed as reduction in microbial growth by CLSI based broth microdilution method; assay type: functional
[11] = Antimicrobial activity against Salmonella enterica subsp. enterica serovar Pullorum ATCC 7913 assessed as reduction in microbial growth by CLSI based broth microdilution method; assay type: functional
Staphylococcus aureus [12] = assay: Antimicrobial activity against Staphylococcus aureus 43300 assessed as reduction in microbial growth by CLSI based broth microdilution method; assay type: functional

Structure (SMILES)	MIC (Escherichia coli [1])	MIC (Escherichia coli [2])	MIC (Staphylococcus aureus [3])	MIC (Salmonella typhimurium [4])	MIC (Escherichia coli [5])	MIC (Escherichia coli [6])	MIC (Escherichia coli [7])	MIC (Salmonella typhimurium [8])	MIC (Staphylococcus aureus [9])	MIC (Enterococcus faecalis)	MIC [10]	MIC (Pseudomonas aeruginosa)	MIC [11]	MIC (Staphylococcus aureus [12])
Cc1ccc(C(C)C)cc1O [CARVACROL]	128 µg/mL	256 µg/mL	128 µg/mL	128 µg/mL	256 µg/mL	256 µg/mL	128 µg/mL	128 µg/mL	128 µg/mL	256 µg/mL	128 µg/mL	128 µg/mL	128 µg/mL	256 µg/mL
CC(C)=CCC/C(C)=C/C=O [CITRAL]	8190 µg/mL	16400 µg/mL	1020 µg/mL	8190 µg/mL	16400 µg/mL	8190 µg/mL	8190 µg/mL	8190 µg/mL	1020 µg/mL	4100 µg/mL	4100 µg/mL	4100 µg/mL	8190 µg/mL	1020 µg/mL
C=C(C)C1CC=C(C=O)CC1 (stereo unspecified) [PERILLALDEHYDE]	16400 µg/mL	8190 µg/mL	2050 µg/mL	16400 µg/mL	16400 µg/mL	16400 µg/mL	16400 µg/mL	16400 µg/mL	1230 µg/mL	512 µg/mL	256 µg/mL	1230 µg/mL	16400 µg/mL	512 µg/mL
CC(C)c1ccc(C=O)cc1 [CUMINALDEHYDE]	16400 µg/mL	16400 µg/mL	4100 µg/mL	8190 µg/mL	16400 µg/mL	8190 µg/mL	8190 µg/mL	8190 µg/mL	8190 µg/mL	2050 µg/mL	8190 µg/mL	8190 µg/mL	8190 µg/mL	2050 µg/mL
